PMC9573353 (Molecules, 2022)
Read-outs that look alike come from different tables or passages of the source.

Legend:
[1] = Protonation constants by potentiometric titration with spectrophotometric detection; type: physicochemical; conditions: for Protonation constant lgK1: titration from pH 10, for trans-1 first of two protonation steps
Excerpt: (§1) The third one in this equilibrium system must be a complex between the previous two species. Detailed fitting studies by application of the PSEQUAD program confirmed the existence of a complex with a 1:1 (FeL^2+) composition. Furthermore, the apparent formation constant of these species (for the reaction Fe^3+ + HL ⇌ FeL^2+ + H^+) and the individual spectrum of the species could be estimated by this procedure. […] The apparent formation constant determined from this spectrum series and that regarding the titration with the ligand was lgK’FeL = 4.75 ± 0.10. Using this apparent formation constant, the molar fractions of the free Fe^3+ and the 1:1 complex could be calculated as functions of the (protonated) ligand concentration (pHL), as shown by the inset of Figure 12a. Since the spectrophotometric titration was carried out in an acidic solution, in order to estimate the formation constant for the Fe^3+ + L^− ⇌ FeL^2+ reaction, the protonation constant of the deprotonated ligand (L^−) was also determined (by potentiometric titration, starting from the fully deprotonated form at pH = 10, Figure 13), lgK1 = 7.81 ± 0.15. The sum of the apparent formation constant and the protonation constant gives the equilibrium constant regarding the reaction above (lgKFeL = 12.56 ± 0.15).
(§2) The protonation and complex formation constants were determined similarly for the other three compounds. The corresponding figures can be found in the Supplementary Materials (Figures S67 and S68 for cis-2, Figures S69 and S70 for cis-4, and Figures S71 and S72 for trans-1). In the case of trans-1, two protonation steps were observed due to the two OH groups. For calculating the formation constant, lgK2 was taken into account, corresponding to the proton in the OH group on the pyranone ring. This can be exchanged by the Fe^3+ ion easier than the other proton in the phenolic moiety.
A 0.01–0.01 M phosphate–borate–acetate buffer solution was used for potentiometric titration. A 50 cm^3 beaker was filled with 25 cm^3 of buffer solution containing the appropriate amount of ligand, and the pH was adjusted to 10.0 by adding 2 M NaOH solution. The pH was determined using a Consort C3010 multi-parameter analyzer (Consort bvba, Turnhout, Belgium) equipped with a combined glass electrode. The solution was circulated with an IKA PA-SF (IKA Labortechnik, Staufen, Germany) peristaltic pump through a Hellma (176.000-QS 10 mm) flow through the cuvette. Titration was carried out with 6 M H2SO4 solution. The spectra were recorded with a Specord S600 spectrophotometer after pH stabilization.

[2] = Fe3+ complex formation constants by spectrophotometric titration (PSEQUAD); type: physicochemical; conditions: for Apparent formation constant lgK'FeL, Fe^3+ + HL ⇌ FeL^2+ + H^+: 1:1 complex; for Formation constant lgKFeL, Fe^3+ + L^− ⇌ FeL^2+: sum of apparent formation constant and protonation constant
Description: Since Fe^3+ ions strongly hydrolyze, acidic solutions were applied for the spectrophotometric titrations to determine the complex formation constants. Both types of titrations were carried out: increasing the iron(III) concentration at constant ligand concentration and increasing ligand concentration at constant CFe(III).
as §1, §2
Two titration series were used to determine the stability constants of equilibrium systems containing Fe^3+ and ligand. The iron(III) content was increased at constant ligand content, the ligand concentration was increased at constant Fe(III) content, and the spectral changes were recorded with a Specord S600 spectrophotometer (Analytic Jena GmbH, Jena, Germany) in the 190–900 nm wavelength range. […] The two series were evaluated together using PSEQUAD software in the 210–430 nm range.

[3] = biological target: butyrylcholinesterase (BChE) (Equus caballus, UniProt P81908); assay: biochemical; type: biochemical; conditions: mean ± standard deviation, triplicate
[4] = DPPH radical scavenging assay; conditions: 30 min at 25 °C; '-' = did not capture the radical
Description: Antioxidant activity of the tested compounds was measured in terms of hydrogen donating or radical scavenging ability using the stable radical 2,2′-diphenyl-1-picrylhydrazyl (DPPH). The 50 μL of various concentrations of tested solutions (5 μM–1000 μM) were placed in a cuvette, 1 mL of ethanolic solution of DPPH was added, and the final DPPH concentration was kept constant (c = 8 × 10^−4 M). The mixture was incubated for 30 min at 25 °C. […] All determinations were performed in triplicate. The concentrations of tested compounds were expressed as final concentrations. Inhibition of DPPH expressed in percentage was calculated according to the equation:(2) Inhibition (%)=AC(0)−AC(t)/AC(0)·100 where AC(0) is the absorbance of the control at t = 0 min, and AC(t) is the absorbance of the antioxidant at t = 30 min. Data were used to calculate the IC50 value by a nonlinear fit of compound concentration values vs. inhibition percentage.

[5] = biological target: Acetylcholinesterase (AChE) (Electrophorus electricus, UniProt O42275); assay: biochemical; type: biochemical; conditions: mean ± standard deviation, triplicate; '-' = no inhibitory activity
[6] = previously tested; read-out: DPPH IC50; cited from earlier work

Chain of Acetylcholinesterase (AChE) (O42275 24-633): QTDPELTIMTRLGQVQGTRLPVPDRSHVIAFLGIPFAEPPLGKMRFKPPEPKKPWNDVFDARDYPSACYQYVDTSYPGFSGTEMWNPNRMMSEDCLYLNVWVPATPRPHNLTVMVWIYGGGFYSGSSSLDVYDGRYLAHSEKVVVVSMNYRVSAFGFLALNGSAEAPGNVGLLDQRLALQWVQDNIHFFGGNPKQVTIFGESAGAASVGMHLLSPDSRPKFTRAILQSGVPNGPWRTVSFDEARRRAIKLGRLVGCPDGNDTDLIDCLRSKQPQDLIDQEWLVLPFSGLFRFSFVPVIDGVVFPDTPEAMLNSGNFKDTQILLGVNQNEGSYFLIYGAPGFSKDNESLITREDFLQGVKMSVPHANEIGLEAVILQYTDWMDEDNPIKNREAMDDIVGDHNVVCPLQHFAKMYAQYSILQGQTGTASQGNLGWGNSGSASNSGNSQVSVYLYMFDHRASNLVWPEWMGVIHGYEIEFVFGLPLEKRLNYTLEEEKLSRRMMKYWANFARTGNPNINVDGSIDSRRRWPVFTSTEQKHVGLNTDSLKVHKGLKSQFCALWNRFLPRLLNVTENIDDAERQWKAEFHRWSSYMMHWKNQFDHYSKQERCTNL
Chain of butyrylcholinesterase (BChE) (P81908 whole entry): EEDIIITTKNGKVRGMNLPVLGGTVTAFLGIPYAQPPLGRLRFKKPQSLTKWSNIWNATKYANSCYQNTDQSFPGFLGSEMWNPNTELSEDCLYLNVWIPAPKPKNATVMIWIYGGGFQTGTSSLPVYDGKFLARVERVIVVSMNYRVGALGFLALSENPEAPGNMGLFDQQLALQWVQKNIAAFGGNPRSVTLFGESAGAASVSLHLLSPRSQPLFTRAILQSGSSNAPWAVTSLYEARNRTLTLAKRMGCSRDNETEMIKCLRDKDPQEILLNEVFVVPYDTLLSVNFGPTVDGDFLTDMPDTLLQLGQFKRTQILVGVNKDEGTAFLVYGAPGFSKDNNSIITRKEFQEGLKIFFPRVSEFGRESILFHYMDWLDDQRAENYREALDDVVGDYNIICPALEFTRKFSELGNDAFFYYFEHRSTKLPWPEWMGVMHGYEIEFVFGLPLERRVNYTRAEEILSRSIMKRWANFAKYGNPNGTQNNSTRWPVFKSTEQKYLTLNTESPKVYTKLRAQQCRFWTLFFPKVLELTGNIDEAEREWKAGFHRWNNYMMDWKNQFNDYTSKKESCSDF

Row | Compound | Protonation constant lgK1 [1] | Protonation constant lgK2 ([1]; trans-1: proton of the OH group on the pyranone ring) | Formation constant lgKFeHL, Fe^3+ + H2L ⇌ FeHL^2+ + H^+ ([2]; acidic solution, footnote a) | Formation constant lgKFeHL, Fe^3+ + HL^− ⇌ FeHL^2+ ([2]; calculated with lgK2, footnote b) | IC50 [3] [µM] | IC50 [4] [µM] | IC50 [5] [µM] | BChE IC50 [3] | DPPH IC50 [4] | AChE IC50 [5] | Apparent formation constant lgK'FeL, Fe^3+ + HL ⇌ FeL^2+ + H^+ ([2]; acidic solution) | Formation constant lgKFeL, Fe^3+ + L^− ⇌ FeL^2+ [2] | IC50 [6] [µM]
1 | O=c1cc(/C=C/c2ccccc2O)occ1O [trans-1, (E)-5-hydroxy-2-(2-hydroxystyryl)-4H-pyran-4-one] | 8.9 ± 0.20 | 7.25 ± 0.20 | 4.38 ± 0.20 ^a | 11.6 ± 0.2 ^b | 601 ± 34.5 | 251 ± 45.6 | > 1000 |  |  |  |  |  | 
2 | O=c1cc(C=Cc2cccs2)occ1O [compound 7, 5-hydroxy-2-(2-(thiophen-2-yl)vinyl)-4H-pyran-4-one] |  |  |  |  |  |  |  | completely missed any tested bioactivity | completely missed any tested bioactivity | completely missed any tested bioactivity |  |  | 
3 | O=c1cc(/C=C\c2ccccc2C(F)(F)F)occ1O [cis-2, (Z)-5-hydroxy-2-(2-(trifluoromethyl)styryl)-4H-pyran-4-one] | 7.95 ± 0.10 |  |  |  | 458 ± 30.2 | > 1000 | > 1000 |  |  |  | 4.38 ± 0.20 |  | 
4 | O=c1cc(/C=C\c2ccc(Cl)cc2Cl)occ1O [cis-4, (Z)-2-(2,4-dichlorostyryl)-5-hydroxy-4H-pyran-4-one] | 7.99 ± 0.15 |  |  |  | 638 ± 25.8 | > 1000 | 1000 ± 10.1 |  |  |  | 4.16 ± 0.10 | 12.15 ± 0.15 | 
5 | Oc1ccccc1/C=C/c1cccs1 [II] |  |  |  |  | 4.6 ± 0.1 |  | 15.7 ± 1 |  |  |  |  |  | 159
6 | Oc1ccc(/C=C/c2cccs2)c(O)c1 [III] |  |  |  |  | 5.3 ± 1.8 |  | 46.6 ± 8.3 |  |  |  |  |  | 26.8
7 | O=c1cc(/C=C/c2ccsc2)occ1O [trans-6, (E)-5-hydroxy-2-(2-(thiophen-3-yl)vinyl)-4H-pyran-4-one] | 7.81 ± 0.15 |  |  |  | 426 ± 41.8 | > 1000 | > 1000 |  |  |  | 4.75 ± 0.10 | 12.56 ± 0.15 | 
